For data set [1], the system named is S. mansoni adult worms. The data set can be described thus: In vitro assay, S. mansoni adult worms. The class given is cell-based. Conditions: Schistosoma mansoni; S. mansoni adult worms, in vitro; read-out: (a) Adult.
For data set [2], the system named is S. mansoni juvenile worms. The data set can be described thus: In vitro assay, S. mansoni juvenile worms. The class given is cell-based. As to conditions: Schistosoma mansoni; S. mansoni juvenile worms, in vitro; read-out: (b) Juvenile.
The subject of data set [3] is S. haemotobium adult worms. Put plainly: In vitro assay, S. haemotobium adult worms. The class given is cell-based. Conditions: read-out: (c) S. haemotobium. As for the experimental part: (§1) The routine biological assays using adult or juvenile worms and cytotoxicity assays using MRC-5 cells have been disclosed previously in Mansour, N. R., et al. (2016). “High Throughput Screening Identifies Novel Lead Compounds with Activity against Larval, Juvenile and Schistosoma mansoni PLoS Negl Trap Dis 10(4): e0004659. Cytotoxicity assays using the HepG2 cell line were carried out as described in Molecular Diversity (2015) 19, 251-261.
(c) S. haemotobium adult worms

For data set [4], the system named is MRC-5 cells. Put plainly: Cytotoxicity against human MRC-5 cell line. The class given is cell-based. As for the experimental part:
as §1
(d) Cytotoxicity against human MRC-5 cell line

Data set [5] deals with HepG2 cell line. Put plainly: Cytotoxicity against human HepG2 cell lines. The class given is cell-based.
For data set [6], the system named is S. mansoni juvenile worms. Put plainly: Mouse infection model, juvenile worms, oral treatment day 25 post infection, worm recovery. The class given is in vivo, Schistosoma mansoni. As to conditions: mice. As for the experimental part: (§2) Methods for the subcutaneous infection of mice and subsequent worm recovery were as described in Mansour et al (2016) except that infection was with 150 cercariae and the perfusion medium was citrate saline (0.9% sodium chloride, 1.5% tri-sodium citrate). Perfusion was carried out 8 days (adult infections) or 15 days (juvenile infections) after treatment. Perfuseate was collected into 30 mL universal tubes. RBC (Red Blood Cells) were removed by allowing the perfuseate to settle for 10 min, removal of most of the supernatant and washing once as above with 10 mL perfusion medium. A drop of dilute aqueous saponin solution was added to lyse any remaining RBC and the worm suspension poured into a grid-marked small petri dish. The tube was rinsed out into the petri dish and examined for any remaining worms. Worms were counted using a dissecting microscope. The mouse livers removed after perfusion were squashed between two thick glass plates and examined visually and any remaining worms added to those counted as above.
(§3) For testing efficacy against the juvenile worms, treatment was on day 25 post infection and for testing against the adult worms on day 42 post infection. Drugs were suspended in 7% Tween-80/3% Ethanol/double distilled water and drug dispersal was facilitated by vortexing and using a sonicating water bath (Formulation F1). Alternatively, drugs were suspended in 10% DMSO, 90% double distilled water containing 50 mM Na2HPO4 with 0.5% Tween-80 by first dissolving or suspending the drug in DMSO then adding the DMSO solution/suspension to the aqueous solution (Formulation F2). In a further set of conditions, drugs were first dissolved in DMSO, then diluted with corn oil to give a 5% DMSO+drug solution/suspension (Formulation F3)
(§4) The drug solution/suspensions were given by oral gavage at the rate of 10 ml/kg. Positive controls (artemether for juvenile worms and praziquantel for adult worms) were used in each experiment.

The test system of data set [7] is S. mansoni adult worms. Put plainly: Mouse infection model, adult worms, oral treatment day 42 post infection, worm recovery. Conditions: mice. The class given is in vivo, Schistosoma mansoni. As for the experimental part: as §2, §3, §4
Where [8] appears, read: oral 6.25 mg/kg, Formulation F3, negative control 32.6 ± 10.6.
Where [9] appears, read: oral 50 mg/kg, Formulation F3, negative control 32.8 ± 14.
[10] abbreviates: oral 6.25 mg/kg, Formulation F1, negative control 33.8 ± 4.1.
Where [11] appears, read: oral 12.5 mg/kg, Formulation F1, negative control 33.8 ± 4.1.
Setting [12] is: oral 25 mg/kg, Formulation F1, negative control 33.2 ± 9.09.
The mark [13] stands for this setting: oral 5 mg/kg, Formulation F2, negative control 33.2 ± 9.09.
[14] abbreviates: oral 25 mg/kg, Formulation F2, negative control 33.2 ± 9.09.
Setting [15] is: oral 200 mg/kg, Formulation F1, negative control 38.8 ± 5.4.
Where [16] appears, read: oral 50 mg/kg, Formulation F1, negative control 33.8 ± 4.1.
The mark [17] stands for this setting: oral 100 mg/kg, Formulation F1, negative control 33.8 ± 4.1.
The mark [18] stands for this setting: oral 400 mg/kg, Formulation F1, negative control 33.8 ± 4.1.
Setting [19] is: oral 400 mg/kg, Formulation F1, negative control 38.8 ± 5.4.
The mark [20] stands for this setting: oral 50 mg/kg, Formulation F1, negative control 33.2 ± 9.09.

On to `CCc1nc2cnc(-c3cccc(C(F)(F)F)c3)cn2c1-c1ccc(O)cc1F` [Example 8, 3-fluoro-4-[2-ethyl-6-[3-(trifluoromethyl)phenyl]imidazo[1,2-a]pyrazin-3-yl]phenol], for which the values for the IC50 in data set [1], in data set [2] and in data set [3] were 100 nM, 86 nM and less than 1560 nM, respectively. Moreover, the “(d) Cytotox MRC-5” value in data set [4] is 17.3 µM. Besides, the “(e) Cytotox HepG2” value in data set [5] was 18.7 µM.

With `CC(C)c1nc2cnc(-c3cccc(C(F)(F)F)c3)cn2c1-c1ccc(O)cc1F` [Example 9, 3-fluoro-4-[2-(propan-2-yl)-6-[3-(trifluoromethyl)phenyl]imidazo[1,2-a]pyrazin-3-yl]phenol], the IC50 in data set [1] was 76 nM; in data set [2], 79 nM. Moreover, in data set [4], the “(d) Cytotox MRC-5” value came to 13.7 µM. Moreover, the “(e) Cytotox HepG2” value in data set [5] was determined as 9 µM.

On to `Fc1ccc(-c2cn3c(-c4ccc5[nH]ncc5c4F)c(C(F)(F)F)nc3cn2)cc1C(F)(F)C(F)(F)F` [Example 63, 3-(4-Fluoro-1H-indazol-5-yl)-6-(4-fluoro-3-pentafluoroethyl-phenyl)-2-trifluoromethyl-imidazo[1,2-a]pyrazine], for which the IC50 in data set [1] was 11 nM; in data set [2] it was 10 nM; in data set [3], less than 6 nM. Further, the “(e) Cytotox HepG2” value in data set [5] was determined as 11.7 µM. The Mean worm recovery in data set [6] (setting [8]) worked out at 0.6 ± 1.0. In data set [6] (setting [8]), this molecule gave a Percent worm reduction of 98%.

As for `Cc1nc2cnc(-c3ccc(F)c(C(F)(F)F)c3)cn2c1-c1c(F)cc(O)cc1F` [Example 16, 3,5-difluoro-4-[2-methyl-6-[4-fluoro-3-(trifluoromethyl)phenyl]imidazo[1,2-a]pyrazin-3-yl]phenol], the IC50 worked out at 120 nM in data set [1], 220 nM in data set [2] and 40 nM in data set [3]. Further, the “(e) Cytotox HepG2” value in data set [5] worked out at 7.6 µM.

Consider `CCc1nc2cnc(-c3cccc(C(F)(F)F)c3)cn2c1-c1ccc(OC)c(O)c1` [Example 7, 2-methoxy-5-[2-ethyl-6-[3-(trifluoromethyl)phenyl]imidazo[1,2-a]pyrazin-3-yl]phenol], for which the IC50 in data set [1] came to 90 nM; in data set [2], 82 nM. Also, the “(d) Cytotox MRC-5” value in data set [4] is more than 50 µM. Also, the “(e) Cytotox HepG2” value in data set [5] was more than 30 µM.

As for `COc1cc(-c2c(C(C)C)nc3cnc(-c4cccc(C(F)(F)F)c4)cn23)cc2cn[nH]c12` [Example 22, 7-methoxy-5-{2-(propan-2-yl)-6-[3-trifluoromethylphenyl]imidazo[1,2-a]pyrazin-3-yl}-1H-indazole], the IC50 in data set [1] is 430 nM; in data set [2], 530 nM; in data set [3] it was 150 nM.

Regarding `COc1ccc(-c2c(C(C)C)nc3cnc(-c4cccc(C(F)(F)F)c4)cn23)cc1O` [Example 1, 2-methoxy-5-[2-(propan-2-yl)-6-[3-(trifluoromethyl)phenyl]imidazo[1,2-a]pyrazin-3-yl]phenol], the IC50 in data set [1] is 58 nM; in data set [2], 13 nM; in data set [3], less than 195 nM. For the same molecule, the “(d) Cytotox MRC-5” value in data set [4] stood at 21.8 µM. Moreover, the “(e) Cytotox HepG2” value in data set [5] is more than 11.1 µM.

Turning to `CC(C)c1cc(-c2cn3c(-c4ccc5[nH]ncc5c4F)c(C(F)(F)F)nc3cn2)ccc1F` [Example 67, 3-(4-Fluoro-1H-indazol-5-yl)-6-(4-fluoro-3-isopropyl-phenyl)-2-trifluoromethyl-imidazo[1,2-a]pyrazine], the IC50 in data set [1] is 2 nM. The IC50 in data set [2] turned out to be 2 nM. In data set [5], the “(e) Cytotox HepG2” value came to 17.0 µM. Further, in data set [6] (setting [9]), the Mean worm recovery was determined as 0 and the Percent worm reduction came out at 100%.

In the case of `Cc1nc2cnc(-c3ccc(F)c(C(F)(F)F)c3)cn2c1-c1ccc(O)cc1F` [Example 10, 3-fluoro-4-[2-methyl-6-[4-fluoro-3-(trifluoromethyl)phenyl]imidazo[1,2-a]pyrazin-3-yl]phenol], the figures for the IC50 in data set [1] and in data set [2] were less than 780 nM and 530 nM, respectively. For the same molecule, the “(d) Cytotox MRC-5” value in data set [4] came to 14.4 µM. Further, the “(e) Cytotox HepG2” value in data set [5] is more than 11.1 µM.

With `Fc1ccc(-c2cn3c(-c4ccc5[nH]ncc5c4F)c(C(F)(F)F)nc3cn2)cc1C(F)(F)F` [Example 50, 3-(4-Fluoro-1H-indazol-5-yl)-6-(4-fluoro-3-trifluoromethylphenyl)-2-trifluoromethyl-imidazo[1,2-a]pyrazine], the IC50 in data set [2] stood at 60 nM. Also, the Mean worm recovery in data set [7] (setting [10]) worked out at 7.4 ± 8.1; in data set [7] (setting [11]), 0.2; in data set [6] (setting [8]), 17.6 ± 12.0; in data set [6] (setting [12]), 0.8 ± 0.84. Moreover, the Percent worm reduction was found to be 78% in data set [7] (setting [10]), 99% in data set [7] (setting [11]), 46% in data set [6] (setting [8]) and 98% in data set [6] (setting [12]).

On to `Fc1c(-c2c(C(F)(F)F)nc3cnc(-c4cccc(C(F)(F)C(F)(F)F)c4)cn23)ccc2[nH]ncc12` [Example 29, 4-fluoro-5-{2-trifluoromethyl-6-[3-(pentafluoroethyl)phenyl]imidazo[1,2-a]pyrazin-3-yl}-1H-indazole], for which the IC50 in data set [1] amounted to 30 nM; in data set [2] it was 28 nM. In addition, the “(e) Cytotox HepG2” value in data set [5] came to 8.9 µM. In addition, the Mean worm recovery is given as 14.8 ± 6.61 in data set [6] (setting [13]), 2.0 ± 2.6 in data set [6] (setting [8]) and 4 ± 1.41 in data set [6] (setting [14]). In addition, the Percent worm reduction in data set [6] (setting [13]) worked out at 55%; in data set [6] (setting [8]), 94%; in data set [6] (setting [14]), 88%.

Turning to `Cc1nc2cnc(-c3cccc(C(F)(F)F)c3)cn2c1-c1ccc(O)cc1F` [Example 6, 3-fluoro-4-[2-methyl-6-[3-(trifluoromethyl)phenyl]imidazo[1,2-a]pyrazin-3-yl]phenol], the IC50 in data set [1] was 290 nM; in data set [2], 480 nM. In data set [4], the “(d) Cytotox MRC-5” value turned out to be 15.8 µM.

`CC(C)c1nc2cnc(-c3ccc(F)c(C(F)(F)F)c3)cn2c1-c1c(F)cc(O)cc1F` [Example 17, 3,5-difluoro-4-[2-(propan-2-yl)-6-[4-fluoro-3-(trifluoromethyl)phenyl]imidazo[1,2-a]pyrazin-3-yl]phenol]: the IC50 in data set [1] is 44 nM; in data set [2] it was 26 nM; in data set [3], 23 nM. Besides, the “(e) Cytotox HepG2” value in data set [5] is 7.1 µM. The Mean worm recovery was determined as 0.3 ± 0.8 in data set [7] (setting [15]); 20.6 ± 8.5 in data set [6] (oral 50 mg/kg, Formulation F1, negative control 33.0 ± 7.2); 5.2 ± 3.1 in data set [6] (oral 200 mg/kg, Formulation F1, negative control 33.0 ± 7.2). This molecule came in with a Percent worm reduction in data set [7] (setting [15]) of 99%.

As for `O=C(C1CCCCC1)N1CC(=O)N2CCc3ccccc3C2C1` (stereo not shown) [Praziquantel, praziquantel], the Mean worm recovery in data set [7] (setting [16]) was 29.8 ± 8.4; in data set [7] (setting [17]), 12.2 ± 6.3; in data set [7] (setting [18]), 2.6 ± 1.5; in data set [7] (setting [19]), 2.3 ± 1.7; in data set [6] (setting [20]), 26.2 ± 9.44. Also, the Percent worm reduction is 13% in data set [7] (setting [16]); 64% in data set [7] (setting [17]); 92% in data set [7] (setting [18]); 94% in data set [7] (setting [19]); 21% in data set [6] (setting [20]).

These data come from US11046700B2, “Substituted imidazo[1,2-a]pyrazines, pyrazolo[1,5-c]pyrimidines, pyrazolo[1,5-a]pyridines, and purines for the treatment of schistosomiasis” (Merck Patent GmbH, priority 2017, dated 2021).
